Among the data in patent US7211572B2 (Japan Tobacco Inc., priority 2003, dated 2007) are IC50 values, retold here.

Where a name gives a salt, the structure may show the parent alone.

The experiment addresses T1, HIV integrase (Human immunodeficiency virus type 1 group M subtype B, UniProt P12497, F1332H).
T1 construct: HIV integrase full length gene; made in house; host or cells: Escherichia coli BL21(DE3), plasmid pET21a-INH
The experiment is described as follows: Determination of enzyme (HIV integrase) inhibitory activity. Format: biochemical. The conditions noted are these: recombinant HIV integrase (F185H), strand transfer ELISA, absorbance at 450 nm. The text has this: The following explains evaluation methods of the HIV integrase inhibitory activity of the compound of the present invention.
(i) Construction of Recombinant Integrase Gene Expression System
The 185th phenylalanine of HIV integrase full length gene (J. Virol., 67, 425–437 (1993)) was substituted by histidine and inserted into the restriction enzyme NdeI and XhoI sites of plasmid pET21a(+) (Novagen), whereby an integrase expression vector pET21a-INH was constructed.
(ii) Production and Purification of Integrase Protein
Escherichia coli recombinant BL21(DE3) transformed with plasmid pET21a-INH obtained in (i) was shake cultured at 37° C. in a liquid medium containing ampicillin. When the culture reached the logarithmic growth phase, isopropyl-β-D-thiogalactopyranoside was added to promote expression of integrase gene. The culture was continued for 3 hr to promote accumulation of the integrase protein. The recombinant E. coli was collected in pellets by centrifugal separation and preserved at −80° C.
The E. coli was suspended in Lysis buffer (20 mM HEPES (pH 7.5), 5 mM DTT, 10 mM CHAPS, 10% glycerol) containing 1M sodium chloride and subjected to repeat pressurization and depressurization for rupture, and centrifugal separation at 4° C., 40,000×g, 60 min to recover a water-soluble fraction (supernatant). This was diluted 10-fold with Lysis buffer free of sodium chloride, mixed with SP-Sepharose (Pharmacia Corporation) and stirred at 4° C. for 30 min to allow adsorption of integrase protein to the resin. The resin was washed with Lysis buffer containing 100 mM sodium chloride and the integrase protein was eluted with Lysis buffer containing 1M sodium chloride.
The eluted integrase protein solution was applied to a Superdex 75 (Pharmacia Corporation) column for gel filtration. The protein was eluted with Lysis buffer containing 1M sodium chloride.
The obtained fractions of the integrase protein were collected and preserved at −80° C.
(iii) Preparation of DNA Solution
The following DNA synthesized by Greiner was dissolved in TE buffer (10 mM Tris-hydrochloric acid (pH 8.0), 1 mM EDTA) and mixed with donor DNA, target DNA, and each complementary strand (+ and − strands) to 1 μM. The mixture was heated at 95° C. for 5 min, 80° C. for 10 min, 70° C. for 10 min, 60° C. for 10 min, 50° C. for 10 min and 40° C. for 10 min and preserved at 25° C. to give a double stranded DNA, which was used for the test.
Donor DNA (− strand having biotin attached to the 5′ terminal)
(iv) Determination of Enzyme (HIV Integrase) Inhibitory Activity
The donor DNA was diluted with TE buffer to 10 nM, of which 50 μl was added to each well of streptavidin-coated microtiter plate (Roche) and allowed to adsorb at 37° C. for 60 min. The DNA was washed with phosphate buffer (Dulbecco PBS, Sanko Junyaku Co., Ltd.) containing 0.1% Tween 20 and phosphate buffer. Then, a reaction mixture (70 μl) having the following composition, a test substance (10 μl) diluted with the reaction mixture and 100 μg/ml integrase protein (10 μl) were added to each well and reacted at 37° C. for 60 min.
Composition of the reaction mixture: 30 mM MOPS (3-morpholinopropanesulfonic acid), 5 mM magnesium chloride, 3 mM DTT (dithiothreitol), 0.1 mg/ml BSA (bovine serum albumin), 5% glycerol, 10% DMSO (dimethyl sulfoxide), 0.01% Tween 20.
Then, 50 nM target DNA (10 μl) was added, reacted at 37° C. for 10 min and washed with phosphate buffer containing 0.1% Tween 20 to stop the reaction.
Then, 100 mU/ml peroxidase labeled anti-digoxigenin antibody solution (Roche, 100 μl) was added, and the mixture was reacted at 30° C. for 60 min, followed by washing with phosphate buffer containing 0.1% Tween 20.
A peroxidase color solution (Bio Rad, 100 μl) was added and allowed to react at room temperature for 4 min. The color reaction was stopped by adding 1N sulfuric acid (100 μl). The absorbance at 450 nm was measured. […]
In general terms: An ELISA detects its analyte on a solid surface through an enzyme-linked reagent.

In general, IC50 refers to the concentration needed to halve the response being measured. Turning to `O=C(O)Cc1cn2ccn(Cc3cccc(Cl)c3)c(=O)c2c(O)c1=O` [Example 191, [2-(3-chlorobenzyl)-9-hydroxy-1,8-dioxo-1,8-dihydro-2H-pyrido[1,2-a]pyrazin-7-yl]acetic acid], the concentration for half-maximal inhibition (IC50) was in the range of 10 to 100 nM. The same measure for `COC(=O)Nc1cn2ccn(Cc3cccc(Cl)c3)c(=O)c2c(O)c1=O` [Example 263, methyl[2-(3-chlorobenzyl)-9-hydroxy-1,8-dioxo-1,8-dihydro-2H-pyrido[1,2-a]pyrazin-7-yl]carbamate]: under 10 nM; for `CS(=O)(=O)CCC1CN(Cc2ccc(Cl)c(Cl)c2)C(=O)c2c(O)c(=O)ccn21` (centres unmarked) [Example 32, 2-(3,4-dichlorobenzyl)-9-hydroxy-4-(2-methanesulfonylethyl)-3,4-dihydro-2H-pyrido[1,2-a]pyrazine-1,8-dione]: 10 to 100 nM. The same measure for `O=C1c2c(O)c(=O)c(-c3nccs3)cn2CCN1Cc1ccc(Cl)cc1OCc1ccccc1` [Example 359, 2-(2-benzyloxy-4-chlorobenzyl)-9-hydroxy-7-(thiazol-2-yl)-3,4-dihydro-2H-pyrido[1,2-a]pyrazine-1,8-dione hydrochloride]: 10 to 100 nM; for `O=C1c2c(O)c(=O)c(-c3nccs3)cn2CCN1Cc1ccc(Cl)cc1` [Example 293, 2-(4-chlorobenzyl)-9-hydroxy-7-(thiazol-2-yl)-3,4-dihydro-2H-pyrido[1,2-a]pyrazine-1,8-dione]: 10 to 100 nM; for `O=c1c([S+]([O-])c2ccccc2)cn2ccn(Cc3cccc(Cl)c3)c(=O)c2c1O` (centres unmarked) [Example 236, 7-benzenesulfinyl-2-(3-chlorobenzyl)-9-hydroxy-2H-pyrido[1,2-a]pyrazine-1,8-dione]: 10 to 100 nM. With `CNC(=O)c1cn2c(c(O)c1=O)C(=O)N(Cc1ccc(F)c(Cl)c1)CC2` [Example 227, N-methyl-2-(3-chloro-4-fluorobenzyl)-9-hydroxy-1,8-dioxo-1,3,4,8-tetrahydro-2H-pyrido[1,2-a]pyrazine-7-carboxamide] the figure was 10 to 100 nM; with `O=C1c2c(O)c(=O)ccn2CCN1Cc1cc(Cl)cc(Cl)c1` [Example 66, 2-(3,5-dichlorobenzyl)-9-hydroxy-3,4-dihydro-2H-pyrido[1,2-a]pyrazine-1,8-dione], 10 to 100 nM; with `CC(C)CNC(=O)c1cn2ccn(Cc3cccc(Cl)c3)c(=O)c2c(O)c1=O` [Example 173, N-isobutyl-2-(3-chlorobenzyl)-9-hydroxy-1,8-dioxo-1,8-dihydro-2H-pyrido[1,2-a]pyrazine-7-carboxamide], 10 to 100 nM. Regarding `CCCC(=O)Nc1cn2ccn(Cc3cccc(Cl)c3)c(=O)c2c(O)c1=O` [Example 256, N-[2-(3-chlorobenzyl)-9-hydroxy-1,8-dioxo-1,8-dihydro-2H-pyrido[1,2-a]pyrazin-7-yl]butyramide], the IC50 was under 10 nM.

On to `CNC(=O)Cc1cn2ccn(Cc3cccc(Cl)c3)c(=O)c2c(O)c1=O` [Example 189, 2-[2-(3-chlorobenzyl)-9-hydroxy-1,8-dioxo-1,8-dihydro-2H-pyrido[1,2-a]pyrazin-7-yl]-N-methylacetamide], for which the IC50 fell in the range of 10 to 100 nM.

As for `Cn1ccnc1-c1cn2ccn(Cc3cccc(Cl)c3)c(=O)c2c(O)c1=O` [Example 148, 2-(3-chlorobenzyl)-9-hydroxy-7-(1-methyl-1H-imidazol-2-yl)-2H-pyrido[1,2-a]pyrazine-1,8-dione hydrochloride], the IC50 fell in the range of 10 to 100 nM.

In the case of `CC(C)Cc1cc(=O)c(O)c2n1CCN(Cc1ccc(Cl)c(Cl)c1)C2=O` [Example 54, 2-(3,4-dichlorobenzyl)-9-hydroxy-6-isobutyl-3,4-dihydro-2H-pyrido[1,2-a]pyrazine-1,8-dione], the IC50 lay in the range of 10 to 100 nM.

With `CC(C)(C)C(O)c1cn2ccn(Cc3cccc(Cl)c3)c(=O)c2c(O)c1=O` (centres unmarked) [Example 118, 2-(3-chlorobenzyl)-9-hydroxy-7-(1-hydroxy-2,2-dimethylpropyl)-2H-pyrido[1,2-a]pyrazine-1,8-dione hydrochloride], the 50% inhibitory concentration (IC50) lay within 10 to 100 nM. For `O=c1ccn2c(CO)cn(Cc3ccc(Cl)c(Cl)c3)c(=O)c2c1O` [Example 86, 2-(3,4-dichlorobenzyl)-9-hydroxy-4-hydroxymethyl-2H-pyrido[1,2-a]pyrazine-1,8-dione], the IC50 was under 10 nM. The same measure for `Cc1cn2ccc(=O)c(O)c2c(=O)n1Cc1ccc(Cl)c(Cl)c1` [Example 9, 2-(3,4-dichlorobenzyl)-9-hydroxy-3-methyl-2H-pyrido[1,2-a]pyrazine-1,8-dione]: 10 to 100 nM; for `O=C1c2c(O)c(=O)c(-c3ccccn3)cn2CCN1Cc1cccc(Cl)c1F` [Example 317, 2-(3-chloro-2-fluorobenzyl)-9-hydroxy-7-(pyridin-2-yl)-3,4-dihydro-2H-pyrido[1,2-a]pyrazine-1,8-dione hydrochloride]: 10 to 100 nM; for `O=C(Nc1cn2ccn(Cc3cccc(Cl)c3)c(=O)c2c(O)c1=O)c1cccs1` [Example 289, N-[2-(3-chlorobenzyl)-9-hydroxy-1,8-dioxo-1,8-dihydro-2H-pyrido[1,2-a]pyrazin-7-yl]thiophene-2-carboxamide]: under 10 nM. The same measure for `O=C1c2c(O)c(=O)c(-c3ccncn3)cn2CCN1Cc1ccc(Cl)cc1` [Example 393, 2-(4-chlorobenzyl)-9-hydroxy-7-(pyrimidin-4-yl)-3,4-dihydro-2H-pyrido[1,2-a]pyrazine-1,8-dione hydrochloride]: 10 to 100 nM; for `O=c1ccn2ncn(Cc3cccc(Cl)c3)c(=O)c2c1O` [Example 146, 3-(3-chlorobenzyl)-5-hydroxy-3H-pyrido[2,1-f][1,2,4]triazine-4,6-dione]: 100 to 1000 nM. For `CNC(=O)c1cn2ccn(Cc3ccc(F)c(Cl)c3)c(=O)c2c(O)c1=O` [Example 207, N-methyl-2-(3-chloro-4-fluorobenzyl)-9-hydroxy-1,8-dioxo-1,8-dihydro-2H-pyrido[1,2-a]pyrazine-7-carboxamide], the IC50 was under 10 nM.

As for `CC(O)c1cc(=O)c(O)c2n1CCN(Cc1ccc(Cl)c(Cl)c1)C2=O` (centres unmarked) [Example 40, 2-(3,4-dichlorobenzyl)-9-hydroxy-6-(1-hydroxyethyl)-3,4-dihydro-2H-pyrido[1,2-a]pyrazine-1,8-dione], the IC50 was 10 to 100 nM. Take `O=C1c2c(O)c(=O)ccn2CC(Cc2ccccc2)N1Cc1ccc(Cl)c(Cl)c1` (centres unmarked) [Example 25, 3-benzyl-2-(3,4-dichlorobenzyl)-9-hydroxy-3,4-dihydro-2H-pyrido[1,2-a]pyrazine-1,8-dione]: the IC50 lay within 10 to 100 nM. The same measure for `CCC(=O)Nc1cn2ccn(Cc3cccc(Cl)c3)c(=O)c2c(O)c1=O` [Example 242, N-[2-(3-chlorobenzyl)-9-hydroxy-1,8-dioxo-1,8-dihydro-2H-pyrido[1,2-a]pyrazin-7-yl]propionamide]: under 10 nM; for `O=C1c2c(O)c(=O)c(-c3nccs3)cn2CCN1CCCCc1ccccc1` [Example 338, 9-hydroxy-2-(4-phenylbutyl)-7-(thiazol-2-yl)-3,4-dihydro-2H-pyrido[1,2-a]pyrazine-1,8-dione hydrochloride]: 10 to 100 nM; for `O=c1c(-c2nnc[nH]2)cn2ccn(Cc3cccc(Cl)c3)c(=O)c2c1O` [Example 164, 2-(3-chlorobenzyl)-9-hydroxy-7-(4H-1,2,4-triazol-3-yl)-2H-pyrido[1,2-a]pyrazine-1,8-dione hydrochloride]: 10 to 100 nM.
